Results taken from patent publication US6858640B2, “Tricyclic indole compounds having affinity for serotonin receptor” (Shionogi & Co., Ltd., priority 2000, dated 2005).
Where two headings read alike, the source gives them in different places.

Legend:
[1] = target: T1, 5HT1A (Rattus norvegicus, UniProt P19327); test: radioligand binding to serotonin receptor, cell membrane sample, Ki by Cheng-Prusoff
T1 construct: prepared from brain of rats or HEK293 cells, which expressed the receptor; from tissue; host or cells: rat brain membranes
T1 sequence (P19327 1-422): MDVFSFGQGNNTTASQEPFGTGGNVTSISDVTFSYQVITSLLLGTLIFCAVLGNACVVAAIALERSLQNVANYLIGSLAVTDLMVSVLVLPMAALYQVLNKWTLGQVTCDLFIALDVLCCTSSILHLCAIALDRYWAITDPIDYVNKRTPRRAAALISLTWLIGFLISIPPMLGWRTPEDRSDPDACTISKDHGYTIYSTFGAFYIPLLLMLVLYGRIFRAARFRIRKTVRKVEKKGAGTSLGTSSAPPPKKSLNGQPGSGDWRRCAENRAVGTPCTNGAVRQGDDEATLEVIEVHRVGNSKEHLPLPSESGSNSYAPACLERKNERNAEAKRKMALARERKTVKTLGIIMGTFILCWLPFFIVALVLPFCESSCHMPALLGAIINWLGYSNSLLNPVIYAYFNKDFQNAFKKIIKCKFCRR
Description: (§1) A mixture of radioactive ligands and some cardinal numbers of test compounds was incubated with a sample of cell membrane, which was prepared from brain of rats or HEK293 cells, which expressed the receptor, under the following conditions. Then, the sample was filtered by suction on a Whatman GF/C. Radioactivity on the filter was encountered by the use of a liquid scintillation counter. 50% Inhibitory concentration values (IC50 values) of each selective binding were calculated for test compounds and the Ki value was obtained by applying an equation of Cheng-Prusoff [Biochem. Pharmacol. 22 (1973) 3099-3108] Ki=IC50/(1+[L]/Kd).

[2] = target: 5HT7 (Homo sapiens, UniProt P34969); test: as above
Description: as §1

[3] = target: T2, 5HT6 (Homo sapiens, UniProt P50406); test: radioligand binding to serotonin receptor, cell membrane sample, Ki by Cheng-Prusoff
T2 construct: expressed in transfected cells; host or cells: HEK293
Description: as §1

[4] = rat hippocampus membranes, 1 nM [3H] 8-OH-DPAT, 25° C. 30 min, read-out: Ki value (nM) ±SE 5-HT1A
[5] = Human 5-HT7 (HEK293), 0.5 nM [3H] 5CT, 25° C. 120 min, read-out: Ki value (nM) ±SE 5-HT7

T2 sequence (P50406 whole entry, species assumed): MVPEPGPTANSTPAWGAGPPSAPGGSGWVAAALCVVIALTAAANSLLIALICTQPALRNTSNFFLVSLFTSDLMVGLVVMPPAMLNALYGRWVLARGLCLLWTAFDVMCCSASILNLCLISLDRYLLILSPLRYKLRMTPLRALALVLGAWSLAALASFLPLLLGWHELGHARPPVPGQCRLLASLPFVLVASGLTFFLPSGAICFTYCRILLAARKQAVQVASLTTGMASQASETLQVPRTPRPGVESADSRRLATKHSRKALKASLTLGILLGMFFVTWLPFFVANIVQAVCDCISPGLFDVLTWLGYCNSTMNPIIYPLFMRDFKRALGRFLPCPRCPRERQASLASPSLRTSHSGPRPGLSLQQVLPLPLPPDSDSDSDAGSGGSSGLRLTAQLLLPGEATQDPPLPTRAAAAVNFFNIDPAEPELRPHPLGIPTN
Sequence of 5HT7 (P34969 whole entry, species assumed): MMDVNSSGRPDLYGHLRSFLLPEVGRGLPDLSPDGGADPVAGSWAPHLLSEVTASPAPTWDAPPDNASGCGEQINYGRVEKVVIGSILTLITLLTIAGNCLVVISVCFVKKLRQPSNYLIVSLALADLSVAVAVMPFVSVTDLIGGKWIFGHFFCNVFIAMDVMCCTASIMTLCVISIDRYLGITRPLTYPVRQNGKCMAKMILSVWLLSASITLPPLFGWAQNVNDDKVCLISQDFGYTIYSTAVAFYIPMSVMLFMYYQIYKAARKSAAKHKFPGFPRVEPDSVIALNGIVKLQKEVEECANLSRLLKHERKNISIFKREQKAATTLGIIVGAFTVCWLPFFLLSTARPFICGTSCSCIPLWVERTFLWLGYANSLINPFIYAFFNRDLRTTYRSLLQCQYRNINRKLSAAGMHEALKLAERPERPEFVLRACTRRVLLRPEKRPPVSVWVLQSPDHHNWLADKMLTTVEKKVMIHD

| Structure (SMILES) | Ki [1] [nM] | Ki [2] [nM] | melting point [°C] | Ki [3] [nM] | Ki [1, 4] [nM] | Ki [2, 5] [nM] |
| --- | --- | --- | --- | --- | --- | --- |
| CCCNC1COc2cccc3[nH]cc(c23)C1 (stereo not drawn) [Compound 19-3] | 5.7 | 46 | 137 to 139 | – | – | – |
| CNC1COc2c(Br)ccc3[nH]cc(c23)C1 (stereo not drawn) [Compound 19-15] | 7.7 | 16 | – | 4.6 | – | – |
| CN(C)C1COc2c(Br)ccc3[nH]cc(c23)C1 (stereo not drawn) [Compound 19-16] | 58 | 86 | 142 to 143 | 62 | – | – |
| CCN(CC)C1COc2cccc3c2c(cn3S(=O)(=O)c2ccccc2)C1 (stereo not drawn) [Compound 36-3] | – | – | 106 to 108 | 4.2 | 58 | – |
| CN(C)C1COc2c(-c3ccccc3)ccc3[nH]cc(c23)C1 (stereo not drawn) [Compound 38, Dimethyl-(5-phenyl-2,7,8,9-tetrahydro-6-oxa-2-azabenzo[cd]azulen-8-yl)amine] | – | – | 168 to 170 | – | 83 | 22 |
| COC(=O)/C=C/c1ccc2[nH]cc3c2c1OCC(N(C)C)C3 (stereo not drawn) [Compound 39, (E)-3-(8-Dimethylamino-2,7,8,9-tetrahydro-6-oxa-2-azabenzo[cd]azulen-5-yl)acrylic acid methyl ester] | – | – | – | – | 27 | 73 |
| C=Cc1ccc2[nH]cc3c2c1OCC(N(C)C)C3 (stereo not drawn) [Compound 40, Dimethyl-(5-vinyl-2,7,8,9-tetrahydro-6-oxa-2-azabenzo[cd]azulen-8-yl)amine] | – | – | – | 32 | 15 | 74 |
